From US20240342111A1, “ISOMER-SPECIFIC NEUROPROTECTIVE EFFECT OF NATURAL RESERVATROL” (priority 2021, published 2024)

Assays:
Ligase IV = test: Immunoblot for DNA repair protein Ligase IV; assay type: cell-based, rat; conditions: 5-50 μM, 4 hours
Excerpt: Ac-K56-H3 is a marker of genomic stability, see Driscoll, R., Hudson, A. & Jackson, S. P. Yeast Rtt109 promotes genome stability by acetylating histone H3 on lysine 56. Science 315, 649-652, doi:10.1126/science.1135862 (2007), and DNA damage, see Tjeertes, J. V., Miller, K. M. & Jackson, S. P. Screen for DNA-damage-responsive histone modifications identifies H3K9Ac and H3K56Ac in human cells. EMBO J 28, 1878-1889, doi:10.1038/emboj.2009.119 (2009), and inhibition of PARP1 causes the downregulation of RAD51, see Hegan, D. C. et al. Inhibition of poly(ADP-ribose) polymerase down-regulates BRCA1 and RAD51 in a pathway mediated by E2F4 and p130. […] The western blot images of the protein levels of HPF1 was quantified using ImageJ.
Cultured neurons (DIV 9-10) were washed once with cold 1×PBS and lysed in cell lysis buffer (20 mM Tris-HCl (pH 7.5), 150 mM NaCl, 1 mM Na2EDTA, 1 mM EGTA, 1% Triton, 2.5 mM sodium pyrophosphate, 1 mM beta-glycerophosphate, 1 mM Na3VO4, 1 μg/ml leupeptin supplemented with protease inhibitor). […] Lysates were quantified using Bio-Rad Protein Assay, and an equal amount of protein was loaded onto a 4 to 12% gradient gel (NuPAGE-Invitrogen). […] Quantification for the western blots was done using ImageJ (Version 1.53c).

[1] = system: Rat cortical neurons transfected with TyrRS siRNA; test: TyrRS siRNA knockdown, then excitotoxic NMDA, MTT assay; assay type: cell-based; conditions: 24 hours
Procedure: Cells viability was assessed using MTT assay. […] Cells were then exposed to excitotoxic NMDA (500 μM for 5 minutes), and viability was assessed using MTT assay after 24 hours.
Primary cortical neuron cultures were obtained from E18 Sprague Dawley rats' cortices, which were dissected in Hibernate E (BrainBits) and dissociated using the Neural Tissue Dissociation kit (Miltenyi Biotec). For this, minced cortices were incubated in a pre-warmed enzyme mix at 37° C. for 15 min; tissues were then triturated and strained using a 40 μm cell strainer. After washing and centrifugation, neurons were seeded in 50 μg/ml poly-D-Lysine (Sigma Aldrich) coated tissue culture plates. NBActive-1 medium (BrainBits) supplemented with 100 U/ml of Penicillin-Streptomycin (Life Technologies), 2 mM L-Glutamine (Life Technologies), and 1 X N21 supplement (R&D Systems) was used as culture medium. Control (AM4635), TyrRS (s443), PARP1 (s130207) siRNA for transfection were obtained from Invitrogen. On 5 DIV, rat cortical neurons were transfected with 75 nM control or TyrRS siRNA using Dharmafect 3 Transfection Reagent. A second transfection was done two days later using 75 nM of TyrRS siRNA, followed by cell collection or assays after another 48 hours. For PARP1 siRNA, on 7 DIV, neurons were transfected with 75 nM siRNA for both control and PARP1 siRNA.
Rat cortical neurons (DIV 10-11) were exposed to different treatments after seeding 20,000 cells/well in 96-well plates. Cell viability was then assessed at 48 hours after the initial exposure to NMDA. 3-[4,5-dimethylthiazole-2-yl]-2,5-diphenyltetrazolium bromide (MTT) assays were used to assess change in cell viability. Cultured rat cortical neurons were incubated with MTT (0.5 mg/mL). […] The percentage of MTT reduced as measured by the difference between the absorbances at 570 nm read in a spectrophotometer (Spectramax 190R Molecular Devices, UK). The percentage of reduction of MTT was calculated comparing the difference of the absorbance at 570 of each sample. […]

TyrRS = target: T1, TyrRS (Rattus norvegicus, UniProt Q4KM49); test: Immunostaining of neuronal TyrRS, RSV alone or in combination with Aβ; assay type: cell-based; conditions: 16 hours; for TyrRS protein levels: alone, 50μ; for Aβ-mediated downregulation of TyrRS: co-treatment 50μ with Aβ 50 nM
T1 construct: Primary cortical neuron cultures were obtained from E18 Sprague Dawley rats' cortices; endogenous in cells; host or cells: rat primary cortical neurons (E18 Sprague Dawley)
T1 sequence (Q4KM49 1-528): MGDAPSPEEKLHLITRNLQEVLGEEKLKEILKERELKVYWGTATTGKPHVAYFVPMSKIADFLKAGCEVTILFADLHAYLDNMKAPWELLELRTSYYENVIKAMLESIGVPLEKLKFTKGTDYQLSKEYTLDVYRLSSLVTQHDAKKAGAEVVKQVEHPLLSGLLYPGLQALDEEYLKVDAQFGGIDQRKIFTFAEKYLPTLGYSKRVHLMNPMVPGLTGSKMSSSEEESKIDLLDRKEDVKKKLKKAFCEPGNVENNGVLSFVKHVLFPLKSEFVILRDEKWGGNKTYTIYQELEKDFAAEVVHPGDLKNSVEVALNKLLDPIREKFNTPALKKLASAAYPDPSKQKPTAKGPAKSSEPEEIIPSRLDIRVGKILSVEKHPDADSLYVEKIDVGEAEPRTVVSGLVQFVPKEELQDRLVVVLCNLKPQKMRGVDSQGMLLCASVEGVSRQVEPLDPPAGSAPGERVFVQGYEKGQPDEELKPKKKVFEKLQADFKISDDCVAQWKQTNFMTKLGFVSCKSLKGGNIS

GSK3β = test: Immunoblot for inhibitory GSK3β phosphorylation; assay type: cell-based, rat; conditions: 16 hours

| SMILES | ligase IV protein levels (Ligase IV) | effect of TyrRS knockdown on viability under excitotoxic NMDA ([1]; cis-RSV 50 μM) | TyrRS protein levels (TyrRS) | Aβ-mediated downregulation of TyrRS (TyrRS) | GSK3β activity via inhibitory phosphorylation (pSer9) (GSK3β) | effect of TyrRS knockdown on viability under excitotoxic NMDA ([1]; low dose trans-RSV 5, 10 μM) | effect of TyrRS knockdown on toxic effects under excitotoxic NMDA ([1]; trans-RSV 50 μM) |
| --- | --- | --- | --- | --- | --- | --- | --- |
| Oc1ccc(/C=C\c2cc(O)cc(O)c2)cc1 [cis-RSV, cis-resveratrol] | upregulated them | blunted the neuroprotective effect | upregulation of the TyrRS protein levels | protected against Aβ-mediated downregulation of TyrRS | inhibited GSK3β through the upregulation of the inhibitory phosphorylation (pSer9) | – | – |
| Oc1ccc(/C=C/c2cc(O)cc(O)c2)cc1 [trans-RSV, trans-resveratrol] | downregulated the protein levels | – | downregulation | exacerbated the downregulation of TyrRS | activated GSK3β by downregulating the levels of pSer9 | blunted the neuroprotective effect | exacerbated the toxic effects |
